The text below walks through data of paper PMC12856912, “Structure-Guided Semisynthesis of Blasticidin S–Amicetin Chimeras as Selective Ribosome Inhibitors” (Journal of the American Chemical Society, 2026).

Usually CC50 stands for the concentration that lowers cell viability or growth by half. In general, MIC refers to the lowest concentration that inhibits growth of the organism.

The nature of series [1]: Cytotoxicity assay (MTS/PMS). Type of series: cell-based. Conditions: monkey, Vero cells (monkey kidney epithelial cells); 24 h treatment, MTS/PMS, average of three biological replicates; read-out: CC50 against Vero cells. Here is the method:
The potential cytotoxic eff ect of the test compounds was investigated using Vero cells (monkey kidney epitheli al cells) following est ablished protocols.3 Briefly, Vero cells were plated into 96-well plates supplemented with Dulbecco's Modified Eagle Medium (DMEM) containing 10% fetal bovine serum (FBS). The cells were placed in a humidified 37 °C environment for incubation with 5% CO₂ for 24 h to allow proper adherence and growth. Following the incubation period, the culture medium was replaced with fresh DMEM containing serial dilutions of the test compounds, while the v ehicle alon e w as used as a negative control. The treated cells were incubated for an additional 24 h. To assess cell viability, the MTS/PMS reagent was added to each well and incubat ed for 4 h. A microplate reader (S ynergy H1, BioTek, USA) was used to m easure absorbance at 490 nm. Al l experiments wer e cond ucted usingthree biologi cal replicates .
Ta b l e S2. CC50 valuesa (µg/mL) against Vero cells […]
aValues at which the cell viability (normalized to vehicle control) was 50%. […]

Series [2] relates to Methicillin resistant S. aureus (MRSA) USA300. As to the kind of experiment: Antibacterial MIC assay, serial dilution. It is filed as cell-based, Staphylococcus aureus. Conditions: for Selectivity index (CC50/MIC) MRSA USA300: CC50 Vero cells / MIC; for MIC: Staphylococcus aureus, read-out: MIC Methicillin resistant S. aureus (MRSA) USA300.
Series [3] deals with Methicillin resistant Staphylococcus epidermidis (MRSE) ATCC 35984 NRS101. As to the kind of experiment: Antibacterial MIC assay, serial dilution. Type of series: cell-based. Conditions: for Selectivity index (CC50/MIC) MRSE 35984: CC50 Vero cells / MIC; for MIC: Staphylococcus epidermidis, read-out: MIC Methicillin resistant Staphylococcus epidermidis (MRSE) ATCC 35984 NRS101.

The subject of the next series is Pseudomonas aeruginosa. The experiment in a line: Antibacterial MIC assay, serial dilution. Type of series: cell-based. The settings on record: for Selectivity index (CC50/MIC) P. aeruginosa: CC50 Vero cells / MIC; for MIC: Pseudomonas aeruginosa, range from biological replicates, read-out: MIC P. aeruginosa. Here is the method:
(§1) Media and solutions were autoclaved or sterile filtered prior to use and mani pulations were carri ed out in a laminar flow hood. Antibacterial t esting was performed in polypropylene 96-well flat bottom plates. The minimal inhibitory concentration of blasticidin S (1) hydrochloride, methyl ester (3) trihydrochloride, P10 (2) tri-T FA , phenet hyl amide (4) tri -T FA , an d blastimidines M 19– 22, A, 29–32, P 37–40, and C 43–46 (salt forms as described in the te xt) were assessed against Staphylococcus aureus ΔNorA, S. aureus ATCC 6538P, methicillin-resistant S. aureus (MRSA) ATCC 43300, Enterococcus faecalis ATCC 29212, vancomycin- resistant Enterococcus, Klebsiella pneumoniae ATCC 29665, Pseudomonas aeruginosa,and Acinetobacter baumannii ATCC 17978 using serial dilutions. Doxycycline (Gold Bio) as a positive control and the vehicle as a negative control. Stock solutions of each compound were prepared at 2.56 mg/mL in 50% DMSO/water and serially diluted in 50% DMSO/water to create master plates. From the master plates, 10 μ L o f each dilution was applied to test plates using a Bravo automated liquid transfer system (Agilent).
(§2) Bacteria previously grown overnight (37 °C, 120–200 RPM), in LB broth were diluted to an OD600 of 0.05 in cation-adjusted Mueller-Hinton broth (CAMHB), grown to an OD600 of ~0.5, and diluted to an OD600 of 0.004 in CAMHB . These diluted cultures were applied to the test plates (190 μL per test well) resulting in final concentrations of the test compounds of 128–1 μg/ m L.
(§3) Growth controls (wells with inoculated media but no vehicle or test compounds) were included to assess any potential toxicity from the vehicle. Th e plates were in cubated at 37 °C for 16–18 h, except fo r VRE and E. faecalis, which w ere in cub ated at 37 °C fo r 24 h. Inh ibition was determined by measuring the optical density at 600 nm (OD60 0) with a Cytation 3 pl ate read er (BioTek). The optical density measurem ents were no rmalized to the positive and negative controls and the vehicle and growth controls were compared and found to b e indistinguishable, indicating no toxicity from […]
(§4) the vehicle used. The MIC was the lowest concentration that inhibited >90% of growth. Two biological replicates were performed in duplicate. MIC values are reported as a range from […]

Series [4] has as its system Acinetobacter baumannii ATCC 17978. As to the kind of experiment: Antibacterial MIC assay, serial dilution. The settings on record: ATCC17978, range from biological replicates. Type of series: cell-based. Here is the method:
as §1, §2, §3, §4

Series [5] concerns Klebsiella pneumoniae ATCC 29665. As to the kind of experiment: Antibacterial MIC assay, serial dilution. Type of series: cell-based. The settings on record: for Selectivity index (CC50/MIC) K. pneumoniae: CC50 Vero cells / MIC; for MIC: Klebsiella pneumoniae, ATCC29665, range from biological replicates, read-out: MIC K. pneumoniae ATCC-29665. Here is the method:
as §1, §2, §3, §4

The subject of series [6] is Enterococcus faecalis ATCC 29212. The experiment in a line: Antibacterial MIC assay, serial dilution. Type of series: cell-based. The settings on record: for Selectivity index (CC50/MIC) E. faecalis 29212: CC50 Vero cells / MIC; for MIC: Enterococcus faecalis, ATCC 29112 / ATCC 29212, 24 h, read-out: MIC E. faecalis ATCC 29112. Here is the method: as §1, §2, §3, §4
The test system of series [7] is Vancomycin resistant Enterococcus faecium NR-31909 (VRE). The experiment in a line: Antibacterial MIC assay, serial dilution. Type of series: cell-based. Conditions: for Selectivity index (CC50/MIC) VRE NR-31909: CC50 Vero cells / MIC; for MIC: Enterococcus faecium, VRE, 24 h, read-out: MIC Vancomycin resistant Enterococcus faecium NR-31909 (VRE). Here is the method:
as §1, §2, §3, §4

Another series concerns S. aureus ΔNorA. As to the kind of experiment: Antibacterial MIC assay, serial dilution. Type of series: cell-based, Staphylococcus aureus. The settings on record: for Selectivity index (CC50/MIC) S. aureus ΔNorA: CC50 Vero cells / MIC; for MIC: Staphylococcus aureus, read-out: MIC S. aureus ∆NorA. Here is the method:
as §1, §2, §3, §4

A further series concerns S. aureus ATCC 6538P. The experiment in a line: Antibacterial MIC assay, serial dilution. It is filed as cell-based, Staphylococcus aureus. The settings on record: for Selectivity index (CC50/MIC) S. aureus 6538P: CC50 Vero cells / MIC; for MIC: Staphylococcus aureus, ATCC 6538P / ATCC 6539P, read-out: MIC S. aureus ATCC 6539P. Here is the method:
as §1, §2, §3, §4

For a further series, the system named is MRSA ATCC 43300. The experiment in a line: Antibacterial MIC assay, serial dilution. It is filed as cell-based, Staphylococcus aureus. Conditions: for Selectivity index (CC50/MIC) MRSA 43300: CC50 Vero cells / MIC; for MIC: Staphylococcus aureus, read-out: MIC MRSA ATCC 43300. Here is the method: as §1, §2, §3, §4
Series [8] concerns Vancomycin resistant E. faecalis NR-31972 (VRE). As to the kind of experiment: Antibacterial MIC assay, serial dilution. It is filed as cell-based, Enterococcus faecalis. Conditions: for Selectivity index (CC50/MIC) VRE NR-31972: CC50 Vero cells / MIC; for MIC: Enterococcus faecalis, VRE, 24 h, read-out: MIC Vancomycin resistant E. faecalis NR-31972 (VRE). Here is the method:
as §1, §2, §3, §4

Series [9] deals with Escherichia coli BAA-2452. The experiment in a line: Antibacterial MIC assay, serial dilution. The settings on record: BAA2452, read-out: MIC Escherichia coli BAA-2452. Type of series: cell-based.

In brackets after ≈: the same amount, converted by molar mass.

For the molecule `COC(=O)[C@H]1O[C@@H](n2ccc(N)nc2=O)C=C[C@@H]1NC(=O)C[C@@H](N)CCN(C)C(=N)N` [Blastimidine M1, blasticidin S methyl ester], in series [1], the CC50 at 24 h was 28 µg/mL (≈ 64.2 µM). Further, the “Selectivity index (CC50/MIC) MRSA USA300” value in series [2] amounted to 3.6. The MIC in series [2] is 8 µg/mL (≈ 18.3 µM); in series [3] it was 16 µg/mL (≈ 36.7 µM); in the series with Pseudomonas aeruginosa, 64 µg/mL (≈ 147 µM); in series [4], 128 µg/mL (≈ 293 µM); in series [5] it was 64 µg/mL (≈ 147 µM); in [6], 16 µg/mL (≈ 36.7 µM). Also, the MIC is 64 µg/mL (≈ 147 µM) in series [7]; 64 to 128 µg/mL (≈ 147 to 293 µM) in the series with S. aureus ΔNorA; 16 to 32 µg/mL (≈ 36.7 to 73.3 µM) in the series on S. aureus ATCC 6538P; 16 to 32 µg/mL (≈ 36.7 to 73.3 µM) in the series on MRSA ATCC 43300; 32 µg/mL (≈ 73.3 µM) in [8]; 8 µg/mL (≈ 18.3 µM) in series [9]. For the same molecule, in [3], the “Selectivity index (CC50/MIC) MRSE 35984” value is given as 1.8. Besides, the “Selectivity index (CC50/MIC) P. aeruginosa” value in the series with Pseudomonas aeruginosa was 0.4. In addition, the “Selectivity index (CC50/MIC) K. pneumoniae” value in [5] is listed as 0.4. In [6], the “Selectivity index (CC50/MIC) E. faecalis 29212” value is 1.8. Moreover, the “Selectivity index (CC50/MIC) VRE NR-31909” value in [7] is on record as 0.4. For the same molecule, in the series with S. aureus ΔNorA, the “Selectivity index (CC50/MIC) S. aureus ΔNorA” value is recorded as 0.3. The “Selectivity index (CC50/MIC) S. aureus 6538P” value in the series with S. aureus ATCC 6538P is given as 1.3. Further, in the series with MRSA ATCC 43300, the “Selectivity index (CC50/MIC) MRSA 43300” value is 1.3. In addition, the “Selectivity index (CC50/MIC) VRE NR-31972” value in series [8] amounted to 0.9.
On to `CNc1ccc(C(=O)Nc2ccn([C@H]3C=C[C@H](NC(=O)C[C@@H](N)CCN(C)C(=N)N)[C@@H](C(N)=O)O3)c(=O)n2)cc1` [Blastimidine A3], for which the CC50 at 24 h in series [1] stood at 24 µg/mL (≈ 43.3 µM). Besides, the “Selectivity index (CC50/MIC) MRSA USA300” value in series [2] is 3.0. Also, the MIC in series [2] is 8 µg/mL (≈ 14.4 µM); in series [3], 16 µg/mL (≈ 28.8 µM); in the series on Pseudomonas aeruginosa it was over 128 µg/mL; in series [4], over 128 µg/mL; in [5], 32 µg/mL (≈ 57.7 µM); in series [6], 16 µg/mL (≈ 28.8 µM). The MIC in series [7] was 8 to 16 µg/mL (≈ 14.4 to 28.8 µM); in the series on S. aureus ΔNorA, 16 µg/mL (≈ 28.8 µM); with S. aureus ATCC 6538P it was 8 to 16 µg/mL (≈ 14.4 to 28.8 µM); in the series with MRSA ATCC 43300, 16 µg/mL (≈ 28.8 µM); in series [8], 32 µg/mL (≈ 57.7 µM); in [9] it was 32 µg/mL (≈ 57.7 µM). In addition, in series [3], the “Selectivity index (CC50/MIC) MRSE 35984” value was 1.5. Besides, the “Selectivity index (CC50/MIC) P. aeruginosa” value in the series with Pseudomonas aeruginosa is listed as under 0.2. Moreover, the “Selectivity index (CC50/MIC) K. pneumoniae” value in series [5] amounted to 0.8. The “Selectivity index (CC50/MIC) E. faecalis 29212” value in series [6] is given as 1.5. In series [7], the “Selectivity index (CC50/MIC) VRE NR-31909” value came to 2.0. In the series on S. aureus ΔNorA, the “Selectivity index (CC50/MIC) S. aureus ΔNorA” value was determined as 1.5. The “Selectivity index (CC50/MIC) S. aureus 6538P” value in the series with S. aureus ATCC 6538P was 2.3. Besides, in the series with MRSA ATCC 43300, the “Selectivity index (CC50/MIC) MRSA 43300” value worked out at 1.5. Besides, in [8], the “Selectivity index (CC50/MIC) VRE NR-31972” value was determined as 0.8.
